We go through 1 substance from US4906468A, “Insulin activity messengers, their antibodies, and thereof” (priority 1986, dated 1990).

The subject of assay [1] is low Km cAMP phosphodiesterase (PDE) from rat adipocyte particulate fraction. In words: Generation of PDE messenger from liver membranes; extracts assayed for modulation of cAMP phosphodiesterase. The format is biochemical. How it is done:
These were generated from bovine liver particulate fractions by a modification of previously described methods. Particulate fraction was prepared from 100 g of bovine liver, and suspended in […] ammonium bicarbonate, pH 7.4. (Buffer A) at a final concentration of 2-4 mg protein/ml. This solution was incubated with 10 mM for 10 min at 37° C., acidified to pH 4.0 with formic acid and sedimented at 45,000 g for 20 min. An equal volume of chloroform/methanol (2:1) was added to the supernatant, and the upper phase was aspirated and methanol was evaporated.
In the tests the results of which are tabulated above, liver membranes were treated as indicated for 10 min at 37° C., centrifuged and supernatants were extracted and purified up to and including the Dowex 50WX-4 step as described earlier herein under "Experimental Procedures". Partially purified extracts were assayed for ability to modulate cAMP phosphodiesterase. Basal activity was 56.2 pmoles/mg protein^-1 -min^-1.

The subject of the next assay is pyruvate dehydrogenase. Briefly: Production of pyruvate dehydrogenase modulating activity in crude extracts of plasma membrane derived supernatants. Format: biochemical.
In a further assay the test system is BC3 Hl cells. In words: Incorporation of radiolabel into water soluble products (SAX HPLC Peaks I and II), insulin treated cells. Particulars: 10 nM insulin. Format: cell-based, murine. How it is done: BC3 Hl cells were cultured at 37° C. in Dubelco's Minimal Essential Medium in the presence of 20% NU serum (Collaborative Research) on collagen coated 10 mm miniwells. Cells (1×10^6 /well) were preincubated with 10 μCi A) [2,6^3 H]myoinositol or B) [1,6^3 H]glucosamine (New England Nuclear) for 20 hours in the presence of 20% Nu Serum. Insulin was added to cells in monolayer in serum free media at a final concentration of 10 nM. Reactions were terminated by removal of media and addition of 1 ml chloroform/methanol/IN HCl (200:100:1), followed by addition of 0.5 ml 10 mM formic acid. Organic and aqueous phases were separated by centrifugation at 500×g for 5 min.
The water soluble labeled products were purified by a modification of a previously described protocol for purification of cAMP phosphodiesterase (PDE) modulators. The aqueous phases were chromatographed on DEAE-Cellulose, eluted with 0.25 TEA-formate, pH 3.75. This fraction was eluted through a C-18 reversed phase sepak in the same buffer. Following lyophilization, the solution was eluted through Dowex 50WX-4 in 50 mM TEA-formate. pH 3.0. […] One ml fractions were counted. The two peaks of insulin stimulated radioactivity coeluted with similarly purified, myocyte derived PDE modulating activities. […]

Assay [2] deals with glycolipid precursor in BC3 Hl cells. In words: Radiolabel in glycolipid precursor (TLC), insulin treated cells. Format: cell-based, murine. On the procedure: (A) [^3 H]inositol and (B) [^3 H]glucosamine labeled cells were treated with or without 10 nM insulin. Following extraction and phase separation, the organic phase were dried under N2, resuspended in chloroform/methanol/H2 O (9:7:2); and spotted on oxalate impregnated Silica gel G plates. These were twice developed in chloroform/acetone/methanol/glacial acetic acid/H2 O (10:4:2:2:1). One cm regions were scraped and radioactivity determined by scintillation counting. Phosphoinositides were identified by iodine staining of standards.
Cells prelabeled with [^3 H]inositol were treated with 10 nM insulin for the designated intervals. Cells were extracted and phase separated as detailed in FIG. 7. Aqueous phases were chromatographed up to and including the SAX HPLC step (upper panel). Results reflect counts from a combination of Peaks I and II. The ratio of counts in these peaks were unchanged over the time course. The precursor residing in the organic phases was identified by the peak on TLC with an Rf =0.22, corresponding to the species depleted by PI-PLC (FIG. 10).

The subject of assay [3] is diacylglycerol in BC3 Hl myocytes. In words: Diacylglycerol production, [^3 H]myristic acid labeled myocytes. The format is cell-based, murine. Conditions: insulin. How it is done:
(§1) Myocytes were incubated for 20 hrs. in serum free DMEM with [9,10^3 H] myristic acid (New England Nuclear), complexed 1:1 to bovine serum albumin. Insulin was added to cells in fresh media for the designated intervals, and reactions were stopped by removal of media and addition of 1 ml chloroform/methanol/IN HCl (200:100:1). 0.6 ml H2 O was added and upper aqueous phases were discarded following centrifugation at 500×g for 5 minutes. The lower, organic phases were dried under N2 and resuspended in 1 ml diethyl ether followed by addition of 1 […]. The upper ether phase was aspirated and the lower phase reextracted with 1 ml diethyl ether. The combined ether phases, containing diacylglycerol, were dried under N2, resuspended in chloroform and spotted on silica gel G plates which were preactivated at 60° C. for 1 hr. Plates were twice developed in petroleum ether/diethyl ether/glacia acetic acid (70:30:2). […] Lipids were scraped and radioactivity determined in a liquid scintillation counter.
(§2) The phosphodiesteratic cleavage of a phospolipid by insulin should also be reflected by increased production of diacylglycerol, which could serve as substrate for a diglyceride kinase, producing phosphatidic acid. Myocytes were preincubated with [^3 H]myristic acid and both diacylglycerol and phosphatidic acid labeling were evaluated by thin layer chromatography (FIG. 6).

Assay [4] concerns phosphatidic acid in BC3 Hl myocytes. Briefly: Phosphatidic acid production, [^3 H]myristic acid labeled myocytes. Format: cell-based, murine. Particulars: insulin, by 5 minutes. How it is done:
as §1, §2

Another assay deals with polyphosphoinositides. Particulars: cited from earlier work.

Turning to “Insulin: Monocomponent bovine insulin from Wellcome Laboratores”, in assay [1] (after partial purification), the “stimulation of PDE modulating activity / increase in production of messengers from membranes” value was determined as 4 fold. The “PDE Activity” value in assay [1] (extracts of liver membranes treated 10 min at 37° C., 1.0 nM insulin, 1.0 μg/ml PI-PLC, basal 56.2) is recorded as 138.0 pmol mg protein^-1 min^-1. Moreover, the “production of pyruvate dehydrogenase modulating activity” value with pyruvate dehydrogenase is given as “enhanced”. Moreover, the “incorporation of [^3 H]inositol into two peaks (I and II)” value in the assay with BC3 Hl cells was “increased the incorporation of [^3 H]inositol into two peaks”. The “percent of maximal effect on production of [^3 H]inositol containing products” value with BC3 Hl cells (30 sec, Peaks I and II combined) is reported as “Seventy”. Besides, the “time course of [^3 H]inositol incorporation into the precursor” value in assay [2] (10 nM insulin) is recorded as “biphasic”. In addition, the “decrease in [^3 H]inositol counts in precursor” value in assay [2] (10 nM insulin, 30 sec) was 20%. For the same substance, in assay [2] (10 nM insulin, after 30 sec), the “increase in [^3 H]inositol radioactivity in precursor over control levels” value is 60%. Also, the “time of hydrolysis of the putative glycolipid precursor and appearance of the products” value in assay [2] (insulin dependent) is reported as “less than 1 min”. In assay [2] (insulin, 10 min), the “increase in incorporation of [^3 H]glucosamine in precursor peak” value was “approximately 40%”, the “increase in incorporation of [^3 H]inositol in precursor peak” value is on record as “approximately 40%” and the “labeling of other lipids” value is “no significant change”. Further, the radioactivity in precursor entry in assay [2] (intact cells) is given as “rapidly diminished”. The “maximal increase in labeled diacylglycerol over basal” value in assay [3] (by 5-10 minutes) is reported as 50%. For the same substance, the labeled diacylglycerol level result in assay [3] (by 2 minutes) is given as “near basal levels”. In addition, the “increase in levels of [^3 H]myristate phosphatidic acid” value in assay [4] is 2 fold. The hydrolysis of polyphosphoinositides result with polyphosphoinositides is “does not stimulate hydrolysis of polyphosphoinositides”.
